SMILES strings stand for the structures.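 In this assay, cells in 96-well plates receive the compound at five concentrations for 48 hours. Endpoints are linearly interpolated between the surrounding concentrations. GI50: concentration for 50% inhibition of growth.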 The source made the active and inactive calls. Cut-off read from the data, not from the text of the source: active = GI50 up to about 1.1 µM and inactive = higher.

Consider four molecules from ChEMBL document CHEMBL1201862, “PubChem BioAssay data set” (2004).

Some test systems named below: U-251; ACHN; Malme-3M; SK-MEL-5; HCT-15; MDA-MB-231; UO-31; SN12C; OVCAR-8; OVCAR-5; SF-268; SNB-19; SF-539; COLO 205; TK-10; IGROV-1; OVCAR-3; HT-29; SR; NCI/ADR-RES.
Holding throughout (assay): NCI-60 cell line screen, 48 h

With `COc1cc(/C=C/C(C)=O)ccc1OP(=O)(O)O`, the GI50 in the assay with U-251 is > 100 µM (inactive); with ACHN, > 100 µM (inactive); with Malme-3M it was > 100 µM (inactive); in the assay with SK-MEL-5, > 100 µM (inactive); in the assay on HCT-15, more than 100 µM; in the assay on MDA-MB-231, > 100 µM (inactive). Also, the GI50 in the assay on UO-31, in the assay with SN12C, in the assay with OVCAR-8, in the assay on OVCAR-5, with SF-268 and in the assay with SNB-19 was > 100 µM (inactive) in each case. For the same molecule, the GI50 in the assay on SF-539, in the assay with COLO 205, in the assay on TK-10, in the assay with IGROV-1, with OVCAR-3 and in the assay on HT-29 was > 100 µM (inactive) in each case.
Turning to `Cc1nc2ccccc2c(=O)n1NC(=O)c1ccc(N)cc1`, the GI50 is > 100 µM (inactive) in the assay with U-251; > 100 µM (inactive) with ACHN; > 100 µM (inactive) in the assay with Malme-3M; 17.8 µM (inactive) in the assay on SK-MEL-5; > 100 µM (inactive) with SR; > 100 µM (inactive) with MDA-MB-231. Further, the GI50 with UO-31, in the assay with SN12C, in the assay on OVCAR-8, in the assay with OVCAR-5, in the assay on SF-268 and in the assay on SNB-19 was > 100 µM (inactive) throughout. For the same molecule, the GI50 in the assay on SF-539, in the assay with COLO 205, in the assay on TK-10, with IGROV-1, with OVCAR-3 and with HT-29 was > 100 µM (inactive) in each case.
`C(=N\c1ccc(-c2nc3ccccc3s2)cc1)/c1ccc[nH]1`: the GI50 with U-251 was 14.4 µM (inactive); in the assay on ACHN, 20.7 µM (inactive); in the assay with Malme-3M it was 18.2 µM (inactive); with SK-MEL-5, 16.7 µM (inactive); in the assay on HCT-15, 13.6 µM; in the assay on SR it was 21.4 µM (inactive). In addition, the GI50 in the assay with UO-31 was 17.4 µM (inactive); in the assay with SN12C, 19.5 µM (inactive); with OVCAR-8, 27.6 µM (inactive); in the assay with OVCAR-5 it was 22 µM (inactive); with SF-268, 15.5 µM (inactive); in the assay on NCI/ADR-RES it was 13.3 µM (inactive). Further, the GI50 was 29.4 µM (inactive) with SNB-19; 17.6 µM (inactive) in the assay on SF-539; 16.3 µM (inactive) in the assay with COLO 205; 31.8 µM (inactive) in the assay on TK-10; 15.1 µM (inactive) in the assay on IGROV-1; 14.7 µM (inactive) in the assay with OVCAR-3. Further, the GI50 in the assay on HT-29 was 19.8 µM (inactive).
Regarding `C[C@H]1S[C@H](c2c(Cl)cccc2Cl)N2Cc3ccccc3N=C12`, the GI50 in the assay with U-251 was 23.4 µM (inactive); with ACHN, 12.4 µM (inactive); in the assay with SK-MEL-5, 10.2 µM (inactive); in the assay on HCT-15, 14.9 µM; in the assay on SR it was 8.07 µM (inactive); in the assay on MDA-MB-231, 23.9 µM (inactive). Moreover, the GI50 in the assay with UO-31 was 12.4 µM (inactive); with SN12C, 29.2 µM (inactive); with OVCAR-5 it was 12 µM (inactive); in the assay on SF-268, 14.2 µM (inactive); with SNB-19, 10.3 µM (inactive); in the assay on SF-539, 14.7 µM (inactive). Moreover, the GI50 in the assay with COLO 205 was 11.1 µM (inactive); with TK-10, 17 µM (inactive); with IGROV-1, 12.1 µM (inactive); in the assay with OVCAR-3, 11.4 µM (inactive).
